Patent US4962097A, “Method of treating bacterial infection with phosphorus containing DHP enzyme inhibitors” (Merck & Co., Inc., priority 1989, dated 1990)

target: T1, renal dehydropeptidase I (Sus scrofa, UniProt P22412); assay: in vitro screen: inhibition of hydrolysis of glycyldehydrophenylalanine (GDP) by solubilized renal dipeptidase from hog kidneys (renal dehydropeptidase I inhibition); type: biochemical; conditions: Table I, structure II (olefins); GDP 0.05 mM, 50 mM MOPS pH 7.1, 37° C., 275 nm
T1 construct: isolated from hog kidneys; from tissue; host or cells: hog kidney
T1 sequence (P22412 17-409): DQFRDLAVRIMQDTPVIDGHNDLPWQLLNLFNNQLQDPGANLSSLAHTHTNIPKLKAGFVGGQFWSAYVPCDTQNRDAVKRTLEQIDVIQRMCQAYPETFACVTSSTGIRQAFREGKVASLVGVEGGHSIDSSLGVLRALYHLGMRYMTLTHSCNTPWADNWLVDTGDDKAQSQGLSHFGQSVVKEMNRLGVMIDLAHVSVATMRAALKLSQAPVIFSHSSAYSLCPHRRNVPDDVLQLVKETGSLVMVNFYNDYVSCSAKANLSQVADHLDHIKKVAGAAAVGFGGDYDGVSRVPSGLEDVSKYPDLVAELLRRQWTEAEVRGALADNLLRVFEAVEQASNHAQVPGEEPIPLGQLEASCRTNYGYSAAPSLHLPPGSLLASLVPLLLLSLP
Method: This measured the ability of compounds to inhibit hydrolysis of glycyldehydrophenylalanine (GDP) by a solubilized preparation of […] isolated from hog kidneys. The procedure is as follows: to a 1 ml system containing 50 mM "MOPS" (3-(N-morpholino)-propanesulfonic acid) buffer, pH 7.1 is added 5 mg of lyophilized enzyme, and the test compound at a final concentration of 0.1 mM. After a five minute incubation at 37° C., GDP is added to a final concentration of 0.05 mM. Incubation is continued for 10 minutes, at 37° C. and hydroylsis of GDP is measured by the change in optical density with time at 275 nm. Inhibition of the enzyme is gauged by comparison to a standard run containing no inhibitor and is expressed as the inhibitor binding constant K. This is the concentration of the inhibitor which achieves 50% inhibition of the enzyme.

Compared with `N[C@@H](CC1CCCCC1)P(=O)(O)C/C(=C\CC1CCCC1)C(=O)O` [(1(R)-Amino-2-cyclohexylethyl)2-carboxy-4-cyclopentyl-2(Z)-butenyl phosphinic acid], `CCCC/C=C(\CP(=O)(O)C(N)CC(C)C)C(=O)O` (centres unmarked) [(CH3)2 CHCH2; CH3 (CH2)3; RS; Z] is 1.9-fold higher in Ki: 0.86 nM for the first, 1.6 nM for the second. The first binds more tightly here.

Going from `CC(C)/C=C(\CP(=O)(O)[C@@H](N)CC1CCCCC1)C(=O)O` [(cyclo-C6 H11)CH2; (CH3)2 CH; R; Z] to `CCCCC/C=C(\CP(=O)(O)C(N)CC1CCCCC1)C(=O)O` (centres unmarked) [(cyclo-C6 H11)CH2; CH3 (CH2)4; RS; Z, (1-Amino-2-cyclohexylethyl) 2-carboxy-2(Z)-octenyl phosphinic acid], the Ki rises from 0.54 nM to 3.1 nM (5.7-fold). The first binds more tightly here.

First: N[C@@H](CC1CCCCC1)P(=O)(O)C/C(=C\C1CCCCC1)C(=O)O [(cyclo-C6 H11)CH2; cyclo-C6 H11; R; Z, (1(R)-Amino-2-cyclohexylethyl)2-carboxyl-3(Z)-cyclohexyl-2-propenyl phosphinic acid]
Second: NC(CC1CCCCC1)P(=O)(O)C/C(=C\C1CCCCC1)C(=O)O (centres unmarked) [(cyclo-C6 H11)CH2; cyclo-C6 H11; RS; Z, (1-Amino-2-cyclohexylethyl) 2-carboxy-3(Z)-cyclohexyl-2-propenyl phosphinic acid]
The Ki of the first is 1.7-fold lower: 0.52 nM for the first, 0.9 nM for the second.

First: CCCCC/C=C(\CP(=O)(O)C(N)CCCCC)C(=O)O (centres unmarked) [CH3 (CH2)4; CH3 (CH2)4; RS; Z, (1-Aminohexyl) 2-carboxy-2(Z)-octenyl phosphinic acid]
Second: CCCCCC(N)P(=O)(O)C/C(=C\C1CCCCC1)C(=O)O (centres unmarked) [CH3 (CH2)4; cyclo-C6 H11; RS; Z, (1-Aminohexyl) 2-carboxy-3-cyclohexyl-2(Z)-propenyl phosphinic acid]
The Ki of the first is 2.8-fold higher: 1.4 nM for the first, 0.5 nM for the second. The second binds more tightly here.

First: CCCCC/C=C(\CP(=O)(O)C(N)Cc1ccccc1)C(=O)O (centres unmarked) [PhCH2; CH3 (CH2)4; RS; Z]
Second: (1(R)-Amino-2-cyclohexylethyl)2-carboxyl-4-methyl-(E & Z)-2-butenyl phosphinic acids (15C & 15D) [(cyclo-C6 H11)CH2; (CH3)2 CH; RS; Z] [listing 1 of 2 here]
The Ki of the first is 32-fold higher: 68 nM for the first, 2.1 nM for the second. The second binds more tightly here.

“(1(R)-Amino-2-cyclohexylethyl)2-carboxyl-4-methyl-(E & Z)-2-butenyl phosphinic acids (15C & 15D) [(cyclo-C6 H11)CH2; (CH3)2 CH; RS; Z] [listing 2 of 2 here]” gave a Ki of 21 nM.

same assay, conditions: Table II, structure I (saturated); GDP 0.05 mM, 50 mM MOPS pH 7.1, 37° C., 275 nm

`CCCCCC(N)P(=O)(O)CC(CCC1CCCC1)C(=O)O` (racemic) [CH3 (CH2)4; (cyclo-C5 H9)CH2 CH2; RS; RS, (1-Amino-1-hexyl) 2-carboxy-4-cyclopenyl-1-butyl phosphinic acid] and `CCCCCC(N)P(=O)(O)CC(CC1CCCCC1)C(=O)O` (centres unmarked) [CH3 (CH2)4; (cyclo-C6 H11)CH2; RS; RS, (1-Amino-1-hexyl) 2-carboxy-3-cyclohexyl-1-propyl phosphinic acid] are within 1.5-fold of each other in Ki: 7 nM for the first, 9.7 nM for the second.

Compared with `CCCCCCC(CP(=O)(O)C(N)CCCCC)C(=O)O` (racemic) [CH3 (CH2)4; CH3 (CH2)5; RS; RS, (1-Amino-1hexyl) 2-carboxy-l-octyl phosphinic acid], `CCCCC(CP(=O)(O)C(N)CC)C(=O)O` (racemic) [CH3 CH2; CH3 (CH2)3; RS; RS, 1-Aminopropyl-[2-carboxy-l-hexyl]phosphinic acid] is 3.5-fold lower in Ki: 8 nM for the first, 2.3 nM for the second.

Going from `CCC(CP(=O)(O)C(N)CC)C(=O)O` (racemic) [CH3 CH2; CH3 CH2; RS; RS, 1-Aminopropyl-[2-carboxy-l-butyl]phosphinic acid] to `CCCCC(CP(=O)(O)C(N)CC(C)C)C(=O)O` (centres unmarked) [(CH3)2 CHCH2; CH3 (CH2)3; RS; RS, 1-Amino-3-methylbutyl-[2-carboxy-1-hexyl]phosphinic acid], the Ki rises from 1.3 nM to 2.4 nM (1.8-fold).

Going from `CCC(N)P(=O)(O)CC(CCc1ccccc1)C(=O)O` (racemic) [CH3 CH2; Ph(CH2)2; RS; RS, 1-Aminopropyl-[2-carboxy-4-phenyl-l-butyl]phosphinic acid] to `CCCCC(CP(=O)(O)C(N)Cc1ccccc1)C(=O)O` (centres unmarked) [PhCH2; CH3 (CH2)3; RS; RS, 1-Amino-2-phenylethyl-[2-carboxy-1-hexyl]phosphinic acid], the Ki rises from 6.8 nM to 84 nM (12-fold).

Going from `N[C@@H](CC1CCCCC1)P(=O)(O)CC(CCC1CCCC1)C(=O)O` (some centres unmarked) [(1-Amino-2-cyclohexylethyl) 2-carboxy-4-cyclopentyl-1-butyl phosphinic acid] to `N[C@@H](CC1CCCCC1)P(=O)(O)CC(CC1CCCCC1)C(=O)O` (some centres unmarked) [(1-Amino-2-cyclohexylethyl)-2-carboxy-3-cyclohexyl-1-propyl phosphinic acid], the Ki falls from 2.7 nM to 0.5 nM (5.4-fold). The second binds more tightly here.

Compared with `N[C@@H](CC1CCCCC1)P(=O)(O)CC(CCCc1ccncc1)C(=O)O` (some centres unmarked) [(1-Amino-2-cyclohexylethyl)-2-carboxy-5-(4-pyridyl)-pentyl phosphinic acid], `CCCCCCC(CP(=O)(O)C(N)CC1CCCCC1)C(=O)O` (centres unmarked) [(cyclo-C6 H11)CH2; CH3 (CH2)5; RS; RS, (1-Amino-2-cyclohexylethyl) 2-carboxy-1-octyl phosphinic acid] is 2.5-fold lower in Ki: 4 nM for the first, 1.6 nM for the second. The second binds more tightly here.
